Entries after “also recorded” stand apart in the source; their conditions may differ.
Legend:
TXNIP = assay: Western blotting of TXNIP protein levels; type: cell-based, human; settings: NCI/ADR-RES; Western blot
MIA PaCa-2 = assay: MTT assay (cytotoxicity), MIA PaCa-2; type: cell-based; settings: Homo sapiens, 72 h, drug concentration causing a 50% decrease in cell population
Procedure: (§1) The evaluation of cytotoxicity was based on the reduction of MTT dye by viable cells to give purple formazan products, which can be measured spectrophotometrically at 540 nm. One hundred eighty microliters of cancer cells were seeded into 96-well plates at 3,500-4,000 cells/well and incubated at 37° C. overnight before the indicated treatments. After 72 h, 20 μl of MTT solution (3 mg/ml) was added and incubated again for 3 h. After removal of media and solubilization of formazan crystals in 150 μL of DMSO, the absorbance was measured at 570 nm. Percentage of cell growth inhibition was expressed as 1-[(A−B)/(C−B)]×100% (A, B and C were the absorbance values from experimental, blank and control cells, respectively).
(§2) KJA derivatives were tested by the MTT assay against five human cancer cell lines including ovarian cancer cell lines (OVCAR-8, NCI/ADR-RES and SKOV3) and pancreatic cancer cell lines (MIA PaCa-2 and Pac-1). […] It is important to note that the NCI/ADR-RES cell line shares a large number of karyotypic abnormalities with OVCAR-8 but expresses high levels of MDR1 (multidrug resistance protein 1)/P-glycoprotein (see, e.g., Xu, S.; et al., Proceedings of the National Academy of Sciences 2012, 109, 16348-16353), resulting in resistance to multiple anticancer drugs in clinical use, including paclitaxel and doxorubicin.

GLIPR1 = assay: Western blotting of GLIPR1 protein levels; type: cell-based, human; settings: NCI/ADR-RES; Western blot
tumor = assay: Tumor size, body weight and gross toxicity in treated mice; type: in vivo
From the text: Error bars indicate Mean±SEM. and *p<0.05.

NCI/ADR-RES cell line = assay: Bru-seq, changes in transcription; type: cell-based, human
From the text: Furthermore, to better understand the potential mechanism of KJA03, we performed Bru-seq to examine the global changes in transcription in NCI/ADR-RES cells.

OVCAR8 = assay: MTT assay (cytotoxicity), OVCAR8; type: cell-based; settings: Homo sapiens, OVCAR-8, 72 h, drug concentration causing a 50% decrease in cell population
Procedure: as §1, §2

NCI/ADR-RES = assay: MTT assay (cytotoxicity), NCI/ADR-RES; type: cell-based, human
Procedure: as §1, §2

[1] = system: five human cancer cell lines (OVCAR-8, NCI/ADR-RES, SKOV3, MIA PaCa-2, Pac-1); assay: MTT assay, panel of five human cancer cell lines; type: cell-based; settings: span over the five cell lines, read-out: IC50 against five cancer cell lines
Procedure: as §1, §2

Cc1ccc(-c2noc(-c3ccccc3-n3c(-c4ccc(C)cc4)noc3=O)n2)cc1 [KJA03, 3-(P-tolyl)-4-(2-(3-(p-tolyl)-1,2,4-oxadiazol-5-yl)phenyl)-1,2,4-oxadiazol-5(4H)-one]
TXNIP protein levels (TXNIP): downregulated; also recorded: down-regulated dose-dependently
IC50 (MIA PaCa-2): 130 nM
GLIPR1 protein levels (GLIPR1): gradually upregulated; also recorded: up-regulated
tumor sizes (tumor; mice, 10 mg/kg, *p<0.05): tumor sizes were reduced
gross toxicity such as weakness, weight loss or lethargy (tumor; mouse, in vivo): no symptoms of gross toxicity
expression of LAMC2, TAGLN, CSRP1, SLC4A4, LAMB3, and LPP genes (NCI/ADR-RES cell line): significantly increase
Fold-Change ACTC1 (NCI/ADR-RES cell line; NCI/ADR-RES, 0.4 uM, 4 hours): 2.238 fold
Fold-Change APOBEC3 (NCI/ADR-RES cell line; NCI/ADR-RES, 0.4 uM, 4 hours): 0.309 fold
Fold-Change ARMCX1 (NCI/ADR-RES cell line; NCI/ADR-RES, 0.4 uM, 4 hours): 0.417 fold
Fold-Change ATP5I (NCI/ADR-RES cell line; NCI/ADR-RES, 0.4 uM, 4 hours): 0.496 fold
Fold-Change AURKAIP1 (NCI/ADR-RES cell line; NCI/ADR-RES, 0.4 uM, 4 hours): 0.413 fold
Fold-Change BHLHE40 (NCI/ADR-RES cell line; NCI/ADR-RES, 0.4 uM, 4 hours): 2.683 fold
Fold-Change C19orf33 (NCI/ADR-RES cell line; NCI/ADR-RES, 0.4 uM, 4 hours): 0.378 fold
Fold-Change CNO (NCI/ADR-RES cell line; NCI/ADR-RES, 0.4 uM, 4 hours): 0.395 fold
Fold-Change CSRP1 (NCI/ADR-RES cell line; NCI/ADR-RES, 0.4 uM, 4 hours): 2.335 fold
Fold-Change EGR1 (NCI/ADR-RES cell line; NCI/ADR-RES, 0.4 uM, 4 hours): 0.198 fold
Fold-Change EXOSC4 (NCI/ADR-RES cell line; NCI/ADR-RES, 0.4 uM, 4 hours): 0.493 fold
Fold-Change FJX1 (NCI/ADR-RES cell line; NCI/ADR-RES, 0.4 uM, 4 hours): 0.469 fold
Fold-Change GALNT4 (NCI/ADR-RES cell line; NCI/ADR-RES, 0.4 uM, 4 hours): 0.356 fold
Fold-Change GLIPR1 (NCI/ADR-RES cell line; NCI/ADR-RES, 0.4 uM, 4 hours): 2.574 fold
Fold-Change HIST1H2A1 (NCI/ADR-RES cell line; NCI/ADR-RES, 0.4 uM, 4 hours): 0.483 fold
Fold-Change HIST1H2AB (NCI/ADR-RES cell line; NCI/ADR-RES, 0.4 uM, 4 hours): 0.362 fold
Fold-Change HIST1H2AE (NCI/ADR-RES cell line; NCI/ADR-RES, 0.4 uM, 4 hours): 0.471 fold
Fold-Change HIST1H2AG (NCI/ADR-RES cell line; NCI/ADR-RES, 0.4 uM, 4 hours): 0.45 fold
Fold-Change HIST1H2BL (NCI/ADR-RES cell line; NCI/ADR-RES, 0.4 uM, 4 hours): 0.441 fold
Fold-Change HIST1H2BM (NCI/ADR-RES cell line; NCI/ADR-RES, 0.4 uM, 4 hours): 0.193 fold
Fold-Change HIST1H2BN (NCI/ADR-RES cell line; NCI/ADR-RES, 0.4 uM, 4 hours): 0.378 fold
Fold-Change HIST1H3B (NCI/ADR-RES cell line; NCI/ADR-RES, 0.4 uM, 4 hours): 0.432 fold
Fold-Change HIST1H3F (NCI/ADR-RES cell line; NCI/ADR-RES, 0.4 uM, 4 hours): 0.322 fold
Fold-Change HIST1H3G (NCI/ADR-RES cell line; NCI/ADR-RES, 0.4 uM, 4 hours): 0.496 fold
Fold-Change HIST1H3H (NCI/ADR-RES cell line; NCI/ADR-RES, 0.4 uM, 4 hours): 0.136 fold
Fold-Change HIST1H4C (NCI/ADR-RES cell line; NCI/ADR-RES, 0.4 uM, 4 hours): 0.338 fold
Fold-Change HIST1H4H (NCI/ADR-RES cell line; NCI/ADR-RES, 0.4 uM, 4 hours): 0.324 fold
Fold-Change HIST1H4L (NCI/ADR-RES cell line; NCI/ADR-RES, 0.4 uM, 4 hours): 0.416 fold
Fold-Change HIST2H2AC (NCI/ADR-RES cell line; NCI/ADR-RES, 0.4 uM, 4 hours): 0.29 fold
Fold-Change HIST3H2BB (NCI/ADR-RES cell line; NCI/ADR-RES, 0.4 uM, 4 hours): 0.446 fold
Fold-Change HIST4H4 (NCI/ADR-RES cell line; NCI/ADR-RES, 0.4 uM, 4 hours): 0.483 fold
Fold-Change HOXA1 (NCI/ADR-RES cell line; NCI/ADR-RES, 0.4 uM, 4 hours): 0.491 fold
Fold-Change HOXC (NCI/ADR-RES cell line; NCI/ADR-RES, 0.4 uM, 4 hours): 0.477 fold
Fold-Change HOXC4 (NCI/ADR-RES cell line; NCI/ADR-RES, 0.4 uM, 4 hours): 0.4 fold
Fold-Change HSD17B10 (NCI/ADR-RES cell line; NCI/ADR-RES, 0.4 uM, 4 hours): 0.415 fold
Fold-Change ILE (NCI/ADR-RES cell line; NCI/ADR-RES, 0.4 uM, 4 hours): 2.485 fold
Fold-Change INGX (NCI/ADR-RES cell line; NCI/ADR-RES, 0.4 uM, 4 hours): 3.089 fold
Fold-Change LAMB3 (NCI/ADR-RES cell line; NCI/ADR-RES, 0.4 uM, 4 hours): 2.089 fold
Fold-Change LAMC2 (NCI/ADR-RES cell line; NCI/ADR-RES, 0.4 uM, 4 hours): 3.217 fold
Fold-Change LINC00312 (NCI/ADR-RES cell line; NCI/ADR-RES, 0.4 uM, 4 hours): 2.165 fold
Fold-Change LINC00493 (NCI/ADR-RES cell line; NCI/ADR-RES, 0.4 uM, 4 hours): 0.452 fold
Fold-Change LOC100630918 (NCI/ADR-RES cell line; NCI/ADR-RES, 0.4 uM, 4 hours): 0.494 fold
Fold-Change LPP (NCI/ADR-RES cell line; NCI/ADR-RES, 0.4 uM, 4 hours): 2.032 fold
Fold-Change LSMD1 (NCI/ADR-RES cell line; NCI/ADR-RES, 0.4 uM, 4 hours): 2.261 fold
Fold-Change MRPL34 (NCI/ADR-RES cell line; NCI/ADR-RES, 0.4 uM, 4 hours): 0.416 fold
Fold-Change MRPL41 (NCI/ADR-RES cell line; NCI/ADR-RES, 0.4 uM, 4 hours): 0.496 fold
Fold-Change MRPS26 (NCI/ADR-RES cell line; NCI/ADR-RES, 0.4 uM, 4 hours): 0.432 fold
Fold-Change MYADM (NCI/ADR-RES cell line; NCI/ADR-RES, 0.4 uM, 4 hours): 2.114 fold
Fold-Change PA2G4P4 (NCI/ADR-RES cell line; NCI/ADR-RES, 0.4 uM, 4 hours): 0.463 fold
Fold-Change RPL23AP32 (NCI/ADR-RES cell line; NCI/ADR-RES, 0.4 uM, 4 hours): 2.141 fold
Fold-Change RPS19BP1 (NCI/ADR-RES cell line; NCI/ADR-RES, 0.4 uM, 4 hours): 0.49 fold
Fold-Change SCARNA2 (NCI/ADR-RES cell line; NCI/ADR-RES, 0.4 uM, 4 hours): 0.401 fold
Fold-Change SCARNA10 (NCI/ADR-RES cell line; NCI/ADR-RES, 0.4 uM, 4 hours): 0.487 fold
Fold-Change SCARNA17 (NCI/ADR-RES cell line; NCI/ADR-RES, 0.4 uM, 4 hours): 0.496 fold
Fold-Change SDPR (NCI/ADR-RES cell line; NCI/ADR-RES, 0.4 uM, 4 hours): 0.497 fold
Fold-Change SFTA1P (NCI/ADR-RES cell line; NCI/ADR-RES, 0.4 uM, 4 hours): 0.387 fold
Fold-Change SLC4A4 (NCI/ADR-RES cell line; NCI/ADR-RES, 0.4 uM, 4 hours): 2.18 fold
Fold-Change SNRNP25 (NCI/ADR-RES cell line; NCI/ADR-RES, 0.4 uM, 4 hours): 0.463 fold
Fold-Change SSSCA1 (NCI/ADR-RES cell line; NCI/ADR-RES, 0.4 uM, 4 hours): 0.386 fold
Fold-Change TAGLN (NCI/ADR-RES cell line; NCI/ADR-RES, 0.4 uM, 4 hours): 2.648 fold
Fold-Change TCEAL1 (NCI/ADR-RES cell line; NCI/ADR-RES, 0.4 uM, 4 hours): 0.455 fold
Fold-Change TMEM133 (NCI/ADR-RES cell line; NCI/ADR-RES, 0.4 uM, 4 hours): 2.846 fold
Fold-Change TNFAIP3 (NCI/ADR-RES cell line; NCI/ADR-RES, 0.4 uM, 4 hours): 2.192 fold
Fold-Change TPBG (NCI/ADR-RES cell line; NCI/ADR-RES, 0.4 uM, 4 hours): 0.374 fold
Fold-Change TUBB2B (NCI/ADR-RES cell line; NCI/ADR-RES, 0.4 uM, 4 hours): 0.461 fold
Fold-Change TWIST1 (NCI/ADR-RES cell line; NCI/ADR-RES, 0.4 uM, 4 hours): 0.319 fold
Fold-Change TXNIP (NCI/ADR-RES cell line; NCI/ADR-RES, 0.4 uM, 4 hours): 0.281 fold
IC50 (OVCAR8): 140 ± 50 nM
IC50 (NCI/ADR-RES; Homo sapiens, NCI/ADR-RES, MTT, 72 h, drug concentration causing a 50% decrease in cell population): 200 ± 60 nM
growth of NCI/ADR-RES (NCI/ADR-RES; MTT assay after 72 h treatment): inhibited growth
IC50 [1]: 130 to 310 nM

Source: US11214567B2, “Small molecule inhibitors of MYC and uses thereof” (The Regents of the University of Michigan, priority 2017, dated 2022)
